Test results: the NIST ThermoML archive (doi:10.1021/je500389t)

Experiment: xn = mol fraction of the nth substance listed
Settings: 101 kPa, Liquid; for viscosity: Capillary tube (Ostwald / Ubbelohde) method; for mass density: Pycnometric method

COCCOCCOC [2,5,8-trioxanonane] + O
Settings | mass density, 293.15 K [kg/m3] | mass density, 298.15 K [kg/m3] | mass density, 303.15 K [kg/m3] | mass density, 308.15 K [kg/m3] | mass density, 313.15 K [kg/m3] | viscosity, 293.15 K [mPa·s] | viscosity, 298.15 K [mPa·s] | viscosity, 303.15 K [mPa·s] | viscosity, 308.15 K [mPa·s] | viscosity, 313.15 K [mPa·s]
x1 = 0.0147 | 1000.9 | 998.8 | 997.5 | 995.3 | 994.3 | 1.39 | 1.22 | 1.06 | 0.939 | 0.865
x1 = 0.0325 | 1004.6 | 1002.7 | 1000.2 | 998.1 | 995.2 | 1.9 | 1.66 | 1.41 | 1.23 | 1.09
x1 = 0.0548 | 1008.4 | 1005.5 | 1002.4 | 999.6 | 995.9 | 2.56 | 2.2 | 1.82 | 1.576 | 1.41
x1 = 0.0822 | 1010.3 | 1006.8 | 1003.1 | 999.7 | 995.8 | 3.21 | 2.73 | 2.22 | 1.91 | 1.7
x1 = 0.1183 | 1009.2 | 1004.8 | 1000.3 | 996.5 | 992.1 | 3.65 | 3.1 | 2.51 | 2.13 | 1.88
x1 = 0.1676 | 1003.2 | 998.7 | 994.1 | 990.1 | 985.4 | 3.63 | 3.09 | 2.53 | 2.14 | 1.9
x1 = 0.2384 | 993.6 | 988.3 | 983.9 | 979.3 | 974.5 | 3.12 | 2.7 | 2.24 | 1.92 | 1.72
x1 = 0.2866 | 987.3 | 982 | 977.5 | 973.2 | 968 | 2.75 | 2.42 | 2.01 | 1.75 | 1.58
x1 = 0.3468 | 980.1 | 974.9 | 970.4 | 965.6 | 960.8 | 2.36 | 2.1 | 1.77 | 1.5 | 1.42
x1 = 0.4495 | 970.7 | 965.4 | 960.9 | 956.2 | 951.1 | 1.97 | 1.77 | 1.47 | 1.31 | 1.21
x1 = 0.5426 | 963.6 | 958.5 | 953.8 | 949.2 | 943.8 | 1.61 | 1.47 | 1.27 | 1.14 | 1.06
x1 = 0.699 | 955.5 | 950.2 | 945.4 | 941 | 935.7 | 1.32 | 1.2 | 1.08 | 1 | 0.941
x1 = 0.7996 | 951.2 | 945.9 | 941.2 | 936.4 | 931.4 | 1.21 | 1.11 | 0.997 | 0.902 | 0.851
x1 = 0.8928 | 948.3 | 942.9 | 938.1 | 933.3 | 928.2 | 1.14 | 1.05 | 0.955 | 0.862 | 0.817
x1 = 1 | 945.2 | 939.8 | 935 | 930.7 | 925.4 | 1.09 | 0.998 | 0.914 | 0.834 | 0.785
